target: T1, HEK cells stably transfected with tetracycline inducible hNR1 and hNR2A (Homo sapiens, UniProt Q05586+Q12879); assay: Assay 1: Cell-Based Assay, cytosolic calcium response to positive allosteric modulators (with 30 μM glycine and 300 nM L-glutamate, EC30); conditions: Table 3; cytosolic calcium response, with 30 μM glycine and 300 nM L-glutamate (EC30); — = no plateau was reached
T1 construct: expressed in transfected cells; host or cells: HEK cells, stably transfected, tetracycline/doxycycline inducible
In short: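 Cells induced 24 h with 7.5 μg mL^−1 doxycycline plus 500 μM (+)-ketamine, loaded 60 min at 37 °C with calcium dye in Mg-free HBSS (1.8 mM Ca, probenecid, 10 μM (+)-ketamine, pH 7.15). Peak RFU over 5 min after compound addition, scaled to 100 μM L-glutamate (100%) and 0 μM (0%); four-parameter Hill fit for EC50, max % if no plateau.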

T1 sequence (Q12879 23-1464, other chains not shown): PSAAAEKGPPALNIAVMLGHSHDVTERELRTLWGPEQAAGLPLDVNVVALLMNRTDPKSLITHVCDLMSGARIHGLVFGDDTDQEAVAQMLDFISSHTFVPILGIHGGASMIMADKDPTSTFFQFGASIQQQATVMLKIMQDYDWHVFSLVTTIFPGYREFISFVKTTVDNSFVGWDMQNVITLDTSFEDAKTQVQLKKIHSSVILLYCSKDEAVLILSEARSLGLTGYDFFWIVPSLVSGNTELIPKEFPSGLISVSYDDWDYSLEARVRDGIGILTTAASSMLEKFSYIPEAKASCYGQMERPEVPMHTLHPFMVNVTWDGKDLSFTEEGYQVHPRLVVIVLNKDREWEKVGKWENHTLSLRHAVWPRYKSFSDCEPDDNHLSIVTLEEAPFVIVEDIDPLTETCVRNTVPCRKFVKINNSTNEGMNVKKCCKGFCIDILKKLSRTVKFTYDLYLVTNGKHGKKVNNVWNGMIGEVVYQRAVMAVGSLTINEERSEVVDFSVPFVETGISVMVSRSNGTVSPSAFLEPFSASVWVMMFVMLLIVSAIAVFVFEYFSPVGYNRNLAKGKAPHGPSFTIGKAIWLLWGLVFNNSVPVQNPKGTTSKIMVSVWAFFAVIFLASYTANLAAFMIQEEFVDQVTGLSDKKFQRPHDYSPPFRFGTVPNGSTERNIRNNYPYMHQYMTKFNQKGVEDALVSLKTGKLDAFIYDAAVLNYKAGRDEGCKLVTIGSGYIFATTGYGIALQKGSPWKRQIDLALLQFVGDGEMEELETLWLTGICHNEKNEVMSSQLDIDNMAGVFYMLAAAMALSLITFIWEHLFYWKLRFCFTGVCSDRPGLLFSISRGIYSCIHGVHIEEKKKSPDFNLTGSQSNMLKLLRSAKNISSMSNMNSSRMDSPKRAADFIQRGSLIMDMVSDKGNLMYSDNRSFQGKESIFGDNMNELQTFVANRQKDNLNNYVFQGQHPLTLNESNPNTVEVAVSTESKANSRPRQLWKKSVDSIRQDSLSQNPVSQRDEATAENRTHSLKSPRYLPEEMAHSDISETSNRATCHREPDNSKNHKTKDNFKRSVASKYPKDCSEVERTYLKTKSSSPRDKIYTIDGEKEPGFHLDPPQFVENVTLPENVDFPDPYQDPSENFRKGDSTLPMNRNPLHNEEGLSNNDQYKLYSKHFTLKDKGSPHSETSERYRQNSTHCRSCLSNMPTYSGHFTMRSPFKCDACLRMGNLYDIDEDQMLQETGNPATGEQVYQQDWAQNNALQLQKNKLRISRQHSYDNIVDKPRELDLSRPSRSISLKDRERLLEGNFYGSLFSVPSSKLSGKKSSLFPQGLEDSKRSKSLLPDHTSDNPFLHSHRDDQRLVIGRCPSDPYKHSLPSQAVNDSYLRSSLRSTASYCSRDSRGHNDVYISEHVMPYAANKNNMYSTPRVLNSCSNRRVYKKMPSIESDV

EC50 [µM] | Compound
0.501 | Cc1sc2nc(Cn3nc(C(F)(F)F)cc3Cl)cc(=O)n2c1-c1cccnc1 [compound 134, 7-[[5-chloro-3-(trifluoromethyl)pyrazol-1-yl]methyl]-2-methyl-3-(3-pyridyl)thiazolo[3,2-a]pyrimidin-5-one]
0.397 | C=C(C)c1c(C)sc2nc(Cn3nc(C(F)(F)F)cc3Cl)cc(=O)n12 [compound 135, 7-[[5-chloro-3-(trifluoromethyl)pyrazol-1-yl]methyl]-3-isopropenyl-2-methyl-thiazolo[3,2-a]pyrimidin-5-one]
0.775 | Cc1sc2nc(Cn3nc(C(F)(F)F)cc3Cl)cc(=O)n2c1-c1cncc(F)c1 [compound 138, 7-[[5-chloro-3-(trifluoromethyl)pyrazol-1-yl]methyl]-3-(5-fluoro-3-pyridyl)-2-methyl-thiazolo[3,2-a]pyrimidin-5-one]
6.36 | Cc1sc2nc(Cn3nc(Cl)cc3C(F)(F)F)cc(=O)n2c1-c1cncc(F)c1 [compound 139, 7-[[3-chloro-5-(trifluoromethyl)pyrazol-1-yl]methyl]-3-(5-fluoro-3-pyridyl)-2-methyl-thiazolo[3,2-a]pyrimidin-5-one]
0.147 | CCC(=O)c1c(C)sc2nc(Cn3nc(C(F)(F)F)cc3Cl)cc(=O)n12 [compound 140, 7-[[5-chloro-3-(trifluoromethyl)pyrazol-1-yl]methyl]-2-methyl-3-propanoyl-thiazolo[3,2-a]pyrimidin-5-one]
0.328 | CCC(=O)c1c(C)sc2nc(Cn3nc(Cl)cc3C(F)(F)F)cc(=O)n12 [compound 141, 7-[[3-chloro-5-(trifluoromethyl)pyrazol-1-yl]methyl]-2-methyl-3-propanoyl-thiazolo[3,2-a]pyrimidin-5-one]
2.09 | Cc1sc2nc(Cn3nc(C(F)(F)F)cc3Cl)cc(=O)n2c1-c1nccs1 [compound 142, 7-[[5-chloro-3-(trifluoromethyl)pyrazol-1-yl]methyl]-2-methyl-3-thiazol-2-yl-thiazolo[3,2-a]pyrimidin-5-one]
12 | CCNC(=O)c1c(C)sc2nc(CN(C)c3ccc(F)cn3)cc(=O)n12 [compound 143, N-ethyl-7-[[(5-fluoro-2-pyridyl)-methyl-amino]methyl]-2-methyl-5-oxo-thiazolo[3,2-a]pyrimidine-3-carboxamide]
0.0411 | N#CC1CC1c1c(C(F)(F)F)sc2nc(Cn3nc(C(F)(F)F)cc3Cl)cc(=O)n12 (stereo not drawn) [compound 144, 2-[7-[[5-chloro-3-(trifluoromethyl)pyrazol-1-yl]methyl]-5-oxo-2-(trifluoromethyl)thiazolo[3,2-a]pyrimidin-3-yl]cyclopropanecarbonitrile]
0.132 | N#CC1CC1c1c(C(F)(F)F)sc2nc(Cn3nc(Cl)cc3C(F)(F)F)cc(=O)n12 (stereo not drawn) [compound 145, 2-[7-[[3-chloro-5-(trifluoromethyl)pyrazol-1-yl]methyl]-5-oxo-2-(trifluoromethyl)thiazolo[3,2-a]pyrimidin-3-yl]cyclopropanecarbonitrile]
0.156 | N#Cc1cccc(Cc2cc(=O)n3c(C4CC4C(F)(F)F)c(C(F)(F)F)sc3n2)c1F (stereo not drawn) [compound 146, 2-fluoro-3-[[5-oxo-2-(trifluoromethyl)-3-[2-(trifluoromethyl)cyclopropyl]thiazolo[3,2-a]pyrimidin-7-yl]methyl]benzonitrile]
1.98 | CCNC(=O)c1c(C)sc2nc(CN(CC)c3ccc(F)cn3)cc(=O)n12 [compound 147, N-ethyl-7-[[ethyl-(5-fluoro-2-pyridyl)amino]methyl]-2-methyl-5-oxo-thiazolo[3,2-a]pyrimidine-3-carboxamide]
20.8 | CCNC(=O)c1c(C)sc2nc(CN(CC)c3ccccn3)cc(=O)n12 [compound 148, N-ethyl-7-[[ethyl(2-pyridyl)amino]methyl]-2-methyl-5-oxo-thiazolo[3,2-a]pyrimidine-3-carboxamide]
0.729 | Cc1sc2nc(Cn3nc(C(F)(F)F)cc3Cl)cc(=O)n2c1-c1cncc(Cl)c1 [compound 149, 3-(5-chloro-3-pyridyl)-7-[[5-chloro-3-(trifluoromethyl)pyrazol-1-yl]methyl]-2-methyl-thiazolo[3,2-a]pyrimidin-5-one]
17.3 | Cc1sc2nc(Cn3nc(Cl)cc3C(F)(F)F)cc(=O)n2c1-c1cncc(Cl)c1 [compound 150, 3-(5-chloro-3-pyridyl)-7-[[3-chloro-5-(trifluoromethyl)pyrazol-1-yl]methyl]-2-methyl-thiazolo[3,2-a]pyrimidin-5-one]
0.538 | Cc1sc2nc(Cn3nc(C(F)(F)F)cc3Cl)cc(=O)n2c1-c1cscn1 [compound 151, 7-[[5-chloro-3-(trifluoromethyl)pyrazol-1-yl]methyl]-2-methyl-3-thiazol-4-yl-thiazolo[3,2-a]pyrimidin-5-one]
2.85 | CCNC(=O)c1c(C)sc2nc(CN(CC)c3ccc(Cl)cn3)cc(=O)n12 [compound 152, 7-[[(5-chloro-2-pyridyl)-ethyl-amino]methyl]-N-ethyl-2-methyl-5-oxo-thiazolo[3,2-a]pyrimidine-3-carboxamide]

EC50 [µM] | Compound
73.5 | Cc1sc2nc(Cn3nncc3C3CC3)cc(=O)n2c1C1CC1CO (stereo not drawn) [compound 153, 7-[(5-Cyclopropyltriazol-1-yl)methyl]-3-[2-(hydroxymethyl)cyclopropyl]-2-methyl-thiazolo[3,2-a]pyrimidin-5-one]
1.47 | CCNC(=O)c1c(OCC)sc2nc(Cc3cccc(C(F)(F)F)c3F)cc(=O)n12 [compound 156, 2-ethoxy-N-ethyl-7-[[2-fluoro-3-(trifluoromethyl)phenyl]methyl]-5-oxo-thiazolo[3,2-a]pyrimidine-3-carboxamide]
13 | Cc1sc2nc(Cn3nc(C(F)(F)F)cc3Cl)cc(=O)n2c1-c1cccnc1F [compound 157, 7-[[5-chloro-3-(trifluoromethyl)pyrazol-1-yl]methyl]-3-(2-fluoro-3-pyridyl)-2-methyl-thiazolo[3,2-a]pyrimidin-5-one]
1.42 | Cc1sc2nc(Cn3nc(C(F)(F)F)cc3Cl)cc(=O)n2c1-c1ncco1 [compound 158, 7-[[5-chloro-3-(trifluoromethyl)pyrazol-1-yl]methyl]-2-methyl-3-oxazol-2-yl-thiazolo[3,2-a]pyrimidin-5-one]
7.59 | Cc1sc2nc(Cn3nc(Cl)cc3C(F)(F)F)cc(=O)n2c1-c1ncco1 [compound 159, 7-[[3-chloro-5-(trifluoromethyl)pyrazol-1-yl]methyl]-2-methyl-3-oxazol-2-yl-thiazolo[3,2-a]pyrimidin-5-one]
0.753 | Cc1sc2nc(Cn3nc(C(F)(F)F)cc3Cl)cc(=O)n2c1C(F)(F)F [compound 160, 7-[[5-chloro-3-(trifluoromethyl)pyrazol-1-yl]methyl]-2-methyl-3-(trifluoromethyl)thiazolo[3,2-a]pyrimidin-5-one]
1.49 | Cc1sc2nc(Cn3nc(Cl)cc3C(F)(F)F)cc(=O)n2c1C(F)(F)F [compound 161, 7-[[3-chloro-5-(trifluoromethyl)pyrazol-1-yl]methyl]-2-methyl-3-(trifluoromethyl)thiazolo[3,2-a]pyrimidin-5-one]
0.199 | N#CC1CC1c1c(C(F)(F)F)sc2nc(Cc3cccc(C(F)(F)F)c3F)cc(=O)n12 (stereo not drawn) [compound 162, 2-[7-[[2-fluoro-3-(trifluoromethyl)phenyl]methyl]-5-oxo-2-(trifluoromethyl)thiazolo[3,2-a]pyrimidin-3-yl]cyclopropanecarbonitrile]
0.359 | Cc1sc2nc(CN(C)c3ccc(Cl)cn3)cc(=O)n2c1C1CC1CO (stereo not drawn) [compound 163, 7-[[(5-chloro-2-pyridyl)-methyl-amino]methyl]-3-[2-(hydroxymethyl)cyclopropyl]-2-methyl-thiazolo[3,2-a]pyrimidin-5-one]
0.562 | CCNC(=O)c1c(C)sc2nc(Cn3nc(Cl)cc3Cl)cc(=O)n12 [compound 164, 7-[(3,5-dichloropyrazol-1-yl)methyl]-N-ethyl-2-methyl-5-oxo-thiazolo[3,2-a]pyrimidine-3-carboxamide]
1.37 | CCNC(=O)c1c(OCC(F)(F)F)sc2nc(Cc3cccc(C(F)(F)F)c3F)cc(=O)n12 [compound 165, N-ethyl-7-[[2-fluoro-3-(trifluoromethyl)phenyl]methyl]-5-oxo-2-(2,2,2-trifluoroethoxy)thiazolo[3,2-a]pyrimidine-3-carboxamide]
2.69 | CC(=O)c1c(C(F)(F)F)sc2nc(Cn3nc(C(F)(F)F)cc3Cl)cc(=O)n12 [compound 166, 3-acetyl-7-[[5-chloro-3-(trifluoromethyl)pyrazol-1-yl]methyl]-2-(trifluoromethyl)thiazolo[3,2-a]pyrimidin-5-one]
5.26 | CC(=O)c1c(C(F)(F)F)sc2nc(Cn3nc(Cl)cc3C(F)(F)F)cc(=O)n12 [compound 167, 3-acetyl-7-[[3-chloro-5-(trifluoromethyl)pyrazol-1-yl]methyl]-2-(trifluoromethyl)thiazolo[3,2-a]pyrimidin-5-one]
7.46 | C=C(C)c1c(C(F)(F)F)sc2nc(Cn3nc(C(F)(F)F)cc3Cl)cc(=O)n12 [compound 169, 7-[[5-chloro-3-(trifluoromethyl)pyrazol-1-yl]methyl]-3-isopropenyl-2-(trifluoromethyl)thiazolo[3,2-a]pyrimidin-5-one]
0.814 | Cc1sc2nc(Cn3nc(C(F)(F)F)cc3Cl)cc(=O)n2c1-c1ncc[nH]1 [compound 170, 7-[[5-chloro-3-(trifluoromethyl)pyrazol-1-yl]methyl]-3-(1H-imidazol-2-yl)-2-methyl-thiazolo[3,2-a]pyrimidin-5-one]
1.21 | O=c1cc(Cn2nc(C(F)(F)F)cc2Cl)nc2sc(C(F)(F)F)c(-c3cncnc3)n12 [compound 171, 7-[[5-chloro-3-(trifluoromethyl)pyrazol-1-yl]methyl]-3-pyrimidin-5-yl-2-(trifluoromethyl)thiazolo[3,2-a]pyrimidin-5-one]
